Measured values: US20220184222A1, “BICYCLE TOXIN CONJUGATES AND USES THEREOF” (BicycleTx Limited, priority 2019, published 2022)
Values joined by “and” are separate entries in the source; they are usually repeats but may differ in a detail not shown here. Identical values can stand only once. “Also recorded” adds a separate entry of the source. Starred links: 1 amine or outer side, 2 acyl side, 3 side chain; linkers in the order of their positions; H or OH if unused. Non-standard residues stand in square brackets, D forms with d. Residues, ends and D or L forms follow the SMILES beside them. *: point of attachment. Dolaproine = CO[C@@H]([C@@H]1CCCN1)[C@@H](C)C(=O)O; Dil = CC[C@H](C)[C@H](NC)[C@@H](CC(=O)O)OC; PABC = O=C(OCc1ccc(N[*:1])cc1)[*:2]; X1 = O=C(CCCC(=O)*)ON1C(=O)CCC1=O; X2 = C[C@@H](N*)[C@@H](O)c1ccccc1; Cit = NC(=O)NCCC[C@H](N)C(=O)O; NMeV = CN[C@H](C(=O)O)C(C)C

Test system: PC-3 xenograft
Experiment: In vivo efficacy in PC-3 xenograft, female BALB/c nude mice (Example 2)
Set-up: species or system Mus Musculus
Experimental: The objective of the research was to evaluate the in vivo anti-tumor efficacy of BT5528 and BCY10188 in treatment of PC-3 xenograft model in BALB/c nude mice.
Each mouse was inoculated subcutaneously at the right flank with PC-3 tumor cells ([…]) in 0.2 ml of PBS for tumor development. 60 animals were randomized when the average tumor volume reached 464 mm^3. The test article administration and the animal numbers in each group were shown in the experimental design table.
1) 0.1 mg/mL solution (with 50 mM Acetate 10% sucrose pH 5 buffer) was prepared before the operation. 2) The syringe loaded with dosing solution was fixed on the Syringe Pump Machine, then a needle was bound to the pipe jointed with the syringe. 3) The injection volume (10 ml/kg, calculated based on the bodyweight), injection time (1 h for this study), and infusion rate was set to the Pump, then a quick running was conducted to check the working condition of the whole system. 4) The mouse was fixed comfortably, then the operator injected the syringe needle into the caudal vein, and fixed the mouse tail as well as the needle firmly and stably(no need anesthesia for less than 1 h) 5) Then the infusion was started, and the operator kept monitoring the dosing condition till the end.
1) 0.130 mg/mL solution (with 50 mM Acetate 10% sucrose pH 5 buffer) was prepared before the operation. 2) The pump was fully filled with the dosing solution (˜200 μl, see the hand book of the Alzet pump 2001D). 3) The animal in group 12 was anesthetized with 80 mg/kg pentobarbital sodium, and the pump was embedded under the skin of left side of mouse. 4) 26 h later, the animals were anesthetized with pentobarbital sodium, and the pump was taken out. (The infusion rate is not stable at the first 1-3 h, thus the pump was taken out at 26 h instead of 24 h to ensure that all solution was pumped-out).
The major endpoint was to see if the tumor growth could be delayed or mice could be cured. Tumor volume was measured 3 times per week in two dimensions using a caliper, and the volume was expressed in mm^3 using the formula: V=0.5 a×b^2 where a and b are the long and short diameters of the tumor, respectively. The tumor size was then used for calculations of T/C value. The T/C value (in percent) is an indication of antitumor effectiveness; T and C are the mean volumes of the treated and control groups, respectively, on a given day.
TGI was calculated for each group using the formula: TGI (%)=[1−(Ti−T0)/(Vi−V0)]×100; Ti is the average tumor volume of a treatment group on a given day, T0 is the average tumor volume of the treatment group on the day of treatment start, Vi is the average tumor volume of the vehicle control group on the same day with Ti, and V0 is the average tumor volume of the vehicle group on the day of treatment start.
Tumor growth inhibition rate of BT5528 and BCY10188 in the PC-3 xenograft model was calculated based on tumor volume measurements on day 17 after the start of treatment.

[1] = 1 mpk iv 1 h infusion qw*2 weeks, day 17
[2] = 1 mpk sc 24 h minipump qw*2 weeks, day 17

CC[C@H](C)[C@@H]([C@@H](CC(=O)N1CCC[C@H]1[C@H](OC)[C@@H](C)C(=O)N[C@H](C)[C@@H](O)c1ccccc1)OC)N(C)C(=O)[C@@H](NC(=O)[C@H](C(C)C)N(C)C(=O)OCc1ccc(NC(=O)[C@H](CCCNC(N)=O)NC(=O)[C@@H](NC(=O)CCCC(=O)ON2C(=O)CCC2=O)C(C)C)cc1)C(C)C [BT5528] (X1-V[Cit][PABC][NMeV]V[Dil][Dolaproine]-X2)
tumor relapse after ceasing the treatment (1 mg/kg qw*2 weeks via intravenous bolus, intravenous infusion or subcutaneous ALZET pump): obvious relapse 2 weeks later after ceasing the treatment | efficacy across dosing paradigms (1 mg/kg, iv bolus (QW×2 and QW×4), 1 h iv infusion (QW×2), 24 h subcutaneous osmotic pump (QW×2)): equivalent efficacy with a wide range of dosing paradigms; also recorded: comparable anti-tumor activity | Tumor volume (0.11 mpk iv qw*4 weeks, day 0): 463 mm^3 | Tumor volume (0.11 mpk iv qw*4 weeks, day 2): 634 mm^3 | Tumor volume (0.11 mpk iv qw*4 weeks, day 4): 725 mm^3 | Tumor volume (0.11 mpk iv qw*4 weeks, day 6): 861 mm^3 | Tumor volume (0.11 mpk iv qw*4 weeks, day 8): 1172 mm^3 | Tumor volume (0.11 mpk iv qw*4 weeks, day 10): 1247 mm^3 | Tumor volume (0.11 mpk iv qw*4 weeks, day 13): 1333 mm^3 | Tumor volume (0.11 mpk iv qw*4 weeks, day 15): 1568 mm^3 | T/C (0.11 mpk iv qw*4 weeks, day 17): 88.1% | TGI (0.11 mpk iv qw*4 weeks, day 17): 15.3% | Tumor volume (0.11 mpk iv qw*4 weeks, day 17): 1780 mm^3 and 1780 ± 116 mm^3 | Tumor volume (0.33 mpk iv qw*4 weeks, day 0): 463 mm^3 | Tumor volume (0.33 mpk iv qw*4 weeks, day 2): 597 mm^3 | Tumor volume (0.33 mpk iv qw*4 weeks, day 4): 530 mm^3 | Tumor volume (0.33 mpk iv qw*4 weeks, day 6): 525 mm^3 | Tumor volume (0.33 mpk iv qw*4 weeks, day 8): 584 mm^3 | Tumor volume (0.33 mpk iv qw*4 weeks, day 10): 536 mm^3 | Tumor volume (0.33 mpk iv qw*4 weeks, day 13): 493 mm^3 | Tumor volume (0.33 mpk iv qw*4 weeks, day 15): 544 mm^3 | T/C (0.33 mpk iv qw*4 weeks, day 17): 23.9% | TGI (0.33 mpk iv qw*4 weeks, day 17): 98.8% | Tumor volume (0.33 mpk iv qw*4 weeks, day 17): 482 mm^3 and 482 ± 22 mm^3 | Tumor volume (1 mpk iv 1 h infusion qw*2 weeks, day 0): 463 mm^3 | Tumor volume (1 mpk iv 1 h infusion qw*2 weeks, day 2): 538 mm^3 | Tumor volume (1 mpk iv 1 h infusion qw*2 weeks, day 4): 539 mm^3 | Tumor volume (1 mpk iv 1 h infusion qw*2 weeks, day 6): 467 mm^3 | Tumor volume (1 mpk iv 1 h infusion qw*2 weeks, day 8): 399 mm^3 | Tumor volume (1 mpk iv 1 h infusion qw*2 weeks, day 10): 330 mm^3 | Tumor volume (1 mpk iv 1 h infusion qw*2 weeks, day 13): 260 mm^3 | Tumor volume (1 mpk iv 1 h infusion qw*2 weeks, day 15): 213 mm^3 | T/C [1]: 10.3% | TGI [1]: 116.4% | Tumor volume [1]: 209 mm^3 and 209 ± 27 mm^3 | Tumor volume (1 mpk iv qw*2 weeks, day 0): 464 mm^3 | Tumor volume (1 mpk iv qw*2 weeks, day 2): 572 mm^3 | Tumor volume (1 mpk iv qw*2 weeks, day 4): 529 mm^3 | Tumor volume (1 mpk iv qw*2 weeks, day 6): 496 mm^3 | Tumor volume (1 mpk iv qw*2 weeks, day 8): 427 mm^3 | Tumor volume (1 mpk iv qw*2 weeks, day 10): 361 mm^3 | Tumor volume (1 mpk iv qw*2 weeks, day 13): 269 mm^3 | Tumor volume (1 mpk iv qw*2 weeks, day 15): 239 mm^3 | T/C (1 mpk iv qw*2 weeks, day 17): 10.6% | TGI (1 mpk iv qw*2 weeks, day 17): 116.0% | Tumor volume (1 mpk iv qw*2 weeks, day 17): 214 mm^3 and 214 ± 33 mm^3 | Tumor volume (1 mpk iv qw*4 weeks, day 0): 463 mm^3 | Tumor volume (1 mpk iv qw*4 weeks, day 2): 610 mm^3 | Tumor volume (1 mpk iv qw*4 weeks, day 4): 579 mm^3 | Tumor volume (1 mpk iv qw*4 weeks, day 6): 538 mm^3 | Tumor volume (1 mpk iv qw*4 weeks, day 8): 476 mm^3 | Tumor volume (1 mpk iv qw*4 weeks, day 10): 408 mm^3 | Tumor volume (1 mpk iv qw*4 weeks, day 13): 341 mm^3 | Tumor volume (1 mpk iv qw*4 weeks, day 15): 299 mm^3 | T/C (1 mpk iv qw*4 weeks, day 17): 14.5% | TGI (1 mpk iv qw*4 weeks, day 17): 111% | Tumor volume (1 mpk iv qw*4 weeks, day 17): 282 mm^3 and 293 mm^3 and 293 ± 66 mm^3 | Tumor volume (1 mpk sc 24 h minipump qw*2 weeks, day 0): 464 mm^3 | Tumor volume (1 mpk sc 24 h minipump qw*2 weeks, day 2): 517 mm^3 | Tumor volume (1 mpk sc 24 h minipump qw*2 weeks, day 4): 64 mm^3 | Tumor volume (1 mpk sc 24 h minipump qw*2 weeks, day 6): 480 mm^3 | Tumor volume (1 mpk sc 24 h minipump qw*2 weeks, day 8): 443 mm^3 | Tumor volume (1 mpk sc 24 h minipump qw*2 weeks, day 10): 393 mm^3 | Tumor volume (1 mpk sc 24 h minipump qw*2 weeks, day 13): 298 mm^3 | Tumor volume (1 mpk sc 24 h minipump qw*2 weeks, day 15): 249 mm^3 | T/C [2]: 11.1% | TGI [2]: 115.5% | Tumor volume [2]: 223 mm^3 and 223 ± 46 mm^3 | Tumor volume (3 mpk iv qw*4 weeks, day 0): 464 mm^3 | Tumor volume (3 mpk iv qw*4 weeks, day 2): 566 mm^3 | Tumor volume (3 mpk iv qw*4 weeks, day 4): 526 mm^3 | Tumor volume (3 mpk iv qw*4 weeks, day 6): 462 mm^3 | Tumor volume (3 mpk iv qw*4 weeks, day 8): 377 mm^3 | Tumor volume (3 mpk iv qw*4 weeks, day 10): 320 mm^3 | Tumor volume (3 mpk iv qw*4 weeks, day 13): 249 mm^3 | Tumor volume (3 mpk iv qw*4 weeks, day 15): 243 mm^3 | T/C (3 mpk iv qw*4 weeks, day 17): 10.2% | TGI (3 mpk iv qw*4 weeks, day 17): 116.7% | Tumor volume (3 mpk iv qw*4 weeks, day 17): 205 mm^3 and 205 ± 14 mm^3
